In one experiment the target is T1, Btk (Homo sapiens, UniProt Q06187).
T1 construct: purified from insect cells as a full-length construct containing a N-terminal 6X-His tag; His6 (N); made in house; host or cells: insect cells (Method C)
T1 sequence (Q06187 whole entry): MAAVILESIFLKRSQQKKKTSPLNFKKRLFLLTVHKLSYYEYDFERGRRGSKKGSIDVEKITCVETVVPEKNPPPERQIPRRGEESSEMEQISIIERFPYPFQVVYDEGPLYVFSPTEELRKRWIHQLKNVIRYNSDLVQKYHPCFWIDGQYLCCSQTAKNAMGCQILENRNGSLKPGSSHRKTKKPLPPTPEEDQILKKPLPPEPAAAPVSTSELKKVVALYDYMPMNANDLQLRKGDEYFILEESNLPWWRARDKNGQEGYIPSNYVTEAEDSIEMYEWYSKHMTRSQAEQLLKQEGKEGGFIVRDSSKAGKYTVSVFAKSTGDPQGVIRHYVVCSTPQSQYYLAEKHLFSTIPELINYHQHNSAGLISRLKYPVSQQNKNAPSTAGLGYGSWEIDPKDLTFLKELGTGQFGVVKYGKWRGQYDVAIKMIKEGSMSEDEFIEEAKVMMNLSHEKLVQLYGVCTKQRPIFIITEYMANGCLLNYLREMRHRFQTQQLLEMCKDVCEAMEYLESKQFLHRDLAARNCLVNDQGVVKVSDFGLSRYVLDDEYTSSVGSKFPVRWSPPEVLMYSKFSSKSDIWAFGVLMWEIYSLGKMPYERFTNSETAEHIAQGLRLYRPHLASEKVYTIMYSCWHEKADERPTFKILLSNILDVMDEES
Nature of the experiment: Btk in vitro inhibitory activity (one of Method A TR-FRET, Method B electrophoretic mobility shift, Method C radiometric filter binding). It is filed as biochemical. Particulars: method is one of A, B or C, not stated which; read-out: IC50 values against Btk. As for the experimental part: Example 62a: Btk In Vitro Inhibitory Activity (Method A)
Btk kinase activity is determined using a time-resolved fluorescence resonance energy transfer (TR-FRET) methodology. Measurements are performed in a reaction volume of 50 μL using 96-well assay plates. […] The reaction is quenched by the addition of 1.2 equivalents of EDTA (relative to divalent cation) in 25 μL of 1× Lance buffer (Perkin-Elmer). Streptavidin-APC (Perkin-Elmer) and Eu-labeled p-Tyr100 antibody (Perkin-Elmer) in 1× Lance buffer are added in a 25 μL volume to give final concentrations of 100 nM and 2.5 nM, respectively, and the mixture is allowed to incubate for one hour. The TR-FRET signal is measured on a multimode plate reader with an excitation wavelength (λEx) of 330 nm and detection wavelengths (λEm) of 615 and 665 nm. Activity is determined by the ratio of the fluorescence at 665 nm to that at 615 nm. For each compound, enzyme activity is measured at various concentrations of compound. Negative control reactions are performed in the absence of inhibitor in replicates of six, and two no-enzyme controls are used to determine baseline fluorescence levels. Inhibition constants, Ki(app), were obtained using the program BatchKi (Kuzmic et al. (2000), Anal. Biochem. 286:45-50). IC50s are obtained according to the equation:
IC50={Ki(app)/(1+[ATP]/Km^ATP)}+[E]total/2;
For all kinases, [ATP]=Km^ATP, [Btk]total=0.5 nM and [Lck]total=6 nM.
Example 62b: Btk In Vitro Inhibitory Activity (Method B)
Kinase activity is measured in vitro using electrophoretic mobility shift assay. The kinase reactions are assembled in a total volume of 25 μL in 384 well plates. The reactions comprise: BTK enzyme (1 nM, N-terminal His6-tagged, recombinant, full-length, human BTK purified from baculovirus Sf21 insect cell system, 293HEK, or other suitable source), inhibitor, ATP, fluorescently labeled peptide substrate (1 μM, FAM-GEEPLYWSFPAKKK-NH2) in a reaction buffer composed of 100 mM HEPES, pH7.5, 5 mM MgCl2 1 mM DTT, 0.1% bovine serum albumin, 0.01% Triton X-100, and 1% DMSO. The reaction is incubated and is quenched by the addition of termination buffer (100 mM HEPES, pH 7.5, 0.01% Triton X-100, 30 mM EDTA). The terminated reactions are analyzed using a 12 channel LabChip® 3000 microfluidic detection instrument (Caliper Life Sciences). The enzymatic phosphorylation of the peptide results in a change in net charge, enabling electrophoretic separation of product from substrate peptide. As substrate and product peptides are separated, two peaks of fluorescence are observed. Change in the relative fluorescence intensity of the substrate and product peaks is the parameter measured, reflecting enzyme activity. In the presence of an inhibitor, the ratio between product and substrate is altered: the signal of the product decreases, while the signal of the substrate increases.
Activity in each sample is determined as the product to sum ratio (PSR):P/(S+P), where P is the peak height of the product peptide and S is the peak height of the substrate peptide. For each compound, enzyme activity is measured at various concentrations (12 concentrations of compound spaced by 3× dilution intervals). Negative control samples (0%—inhibition in the absence of inhibitor) and positive control samples (100%—inhibition, in the presence of 20 mM EDTA) are assembled in replicates of four and are used to calculate %—inhibition values for each inhibitor at each concentration. Percent inhibition (Pinh) is determined using following equation:
Pinh=(PSR0%−PSRinh)/(PSR0%−PSR100%)*100, where PSRinh is the product sum ratio in the presence of inhibitor, PSR0% is the average product sum ration in the absence of inhibitor and PSR100% is the average product sum ratio in 100%—inhibition control samples.
The IC50 values of inhibitors are determined by 4 parameter sigmoidal dose-response model fitting of the inhibition curves (Pinh versus inhibitor concentration) using XLfit 4 software. […]
The term IC50 denotes the concentration needed to halve the response being measured. As for `CC(C)(C)c1nc(C(=O)NCc2ccc(-c3ccnc4[nH]nc(NC5CCNC5)c34)cc2F)no1` (stereo in doubt) [Example 50], the IC50 is < 10 nM. In the case of `C=CC(=O)N1CC[C@@H](Nc2n[nH]c3nccc(-c4ccc(C5(NC(=O)c6noc(C(C)(C)C)n6)CC5)cc4)c23)C1` [Example 4, 5-tert-butyl-N-{1-[4-(3-{[(3R)-1-(prop-2-enoyl)pyrrolidin-3-yl]amino}-1H-pyrazolo[3,4-b]pyridin-4-yl)phenyl]cyclopropyl}-1,2,4-oxadiazole-3-carboxamide], the IC50 is < 10 nM. On to `C=CC(=O)N1CC[C@@H](Nc2n[nH]c3nccc(-c4ccc(CNC(=O)c5ccc(C(C)(C)C)cc5)c(F)c4)c23)C1` [Example 6, 4-tert-butyl-N-{[2-fluoro-4-(3-{[(3R)-1-(prop-2-enoyl)pyrrolidin-3-yl]amino}-1H-pyrazolo[3,4-b]pyridin-4-yl)phenyl]methyl}benzamide], for which the IC50 is < 10 nM.

As to `CC#CC(=O)N1CC[C@@H](Nc2n[nH]c3nccc(-c4ccc(CNC(=O)c5ccc(C(C)(C)C)cc5)c(F)c4)c23)C1` [Example 7, N-{[4-(3-{[(3R)-1-(but-2-ynoyl)pyrrolidin-3-yl]amino}-1H-pyrazolo[3,4-b]pyridin-4-yl)-2-fluorophenyl]methyl}-4-tert-butylbenzamide], the IC50 is < 10 nM. Still for that read-out and setting: the same measure for `C=CC(=O)N1CC[C@@H](Nc2n[nH]c3nccc(-c4cccc(NC(=O)c5ccc(C(C)(C)C)cc5)c4C)c23)C1` [Example 9, 4-tert-butyl-N-[2-methyl-3-(3-{[(3R)-1-(prop-2-enoyl)pyrrolidin-3-yl]amino}-1H-pyrazolo[3,4-b]pyridin-4-yl)phenyl]benzamide]: < 10 nM; for `C=CC(=O)N1CC[C@@H](Nc2n[nH]c3nccc(-c4cccc(-n5ccc6cc(C7CC7)cc(F)c6c5=O)c4CO)c23)C1` [Example 18, 6-cyclopropyl-8-fluoro-2-[2-(hydroxymethyl)-3-(3-{[(3R)-1-(prop-2-enoyl)pyrrolidin-3-yl]amino}-1H-pyrazolo[3,4-b]pyridin-4-yl)phenyl]-1,2-dihydroisoquinolin-1-one]: < 10 nM; for `C=CC(=O)N1CC[C@@H](Nc2n[nH]c3nccc(-c4ccc(CNC(=O)c5ccccc5)c(F)c4)c23)C1` [Example 33, N-{[2-fluoro-4-(3-{[(3R)-1-(prop-2-enoyl)pyrrolidin-3-yl]amino}-1H-pyrazolo[3,4-b]pyridin-4-yl)phenyl]methyl}benzamide]: < 10 nM.

On to `C=CC(=O)N1CC[C@@H](Nc2n[nH]c3nccc(-c4ccc(CNC(=O)c5ccc(C)cc5)c(F)c4)c23)C1` [Example 34, N-{[2-fluoro-4-(3-{[(3R)-1-(prop-2-enoyl)pyrrolidin-3-yl]amino}-1H-pyrazolo[3,4-b]pyridin-4-yl)phenyl]methyl}-4-methylbenzamide], for which the IC50 is < 10 nM.

Still in this experiment, the particulars now being: wild-type Btk; read-out: Btk-WT IC50.
In the case of `C[C@@H](NC(=O)c1nc(C(C)(C)C)no1)c1ccc(-c2ccnc3[nH]nc(NC4CCCCC4)c23)cc1` [Example 202, 3-tert-butyl-N-[(1R)-1-{4-[3-(cyclohexylamino)-1H-pyrazolo[3,4-b]pyridin-4-yl]phenyl}ethyl]-1,2,4-oxadiazole-5-carboxamide], the IC50 amounted to 31 nM. The same measure, in the same setting: the same measure for `CC(C)(C)c1noc(C(=O)NCc2ccc(-c3ccnc4[nH]nc(N5CCCC5=O)c34)cc2F)n1` [Example 245, 3-tert-butyl-N-({2-fluoro-4-[3-(2-oxopyrrolidin-1-yl)-1H-pyrazolo[3,4-b]pyridin-4-yl]phenyl}methyl)-1,2,4-oxadiazole-5-carboxamide]: 145 nM. On the same count and under the same terms, the same measure for `C[C@H]1CC[C@@H](Nc2n[nH]c3nccc(-c4ccc(CNC(=O)c5noc(C(C)(C)C)n5)cc4CO)c23)CN1C(=O)N(C)C` [Example 251, (2S,5R)-5-({4-[4-{[(5-tert-butyl-1,2,4-oxadiazole-3-carbonyl)amino]methyl}-2-(hydroxymethyl)phenyl]-1H-pyrazolo[3,4-b]pyridin-3-yl}amino)-N,N,2-trimethylpiperidine-1-carboxamide]: 64.6 nM; for `CC(C)(C)c1nc(C(=O)NCc2ccc(-c3ccnc4[nH]nc(OC5CCNC5)c34)cc2F)no1` (stereo not shown) [Example 269, 5-tert-butyl-N-[(2-fluoro-4-{3-[(pyrrolidin-3-yl)oxy]-1H-pyrazolo[3,4-b]pyridin-4-yl}phenyl)methyl]-1,2,4-oxadiazole-3-carboxamide]: 26.3 nM.

The next experiment has as its target T2, TEC (Homo sapiens, UniProt P42680).
T2 sequence (P42680 1-631): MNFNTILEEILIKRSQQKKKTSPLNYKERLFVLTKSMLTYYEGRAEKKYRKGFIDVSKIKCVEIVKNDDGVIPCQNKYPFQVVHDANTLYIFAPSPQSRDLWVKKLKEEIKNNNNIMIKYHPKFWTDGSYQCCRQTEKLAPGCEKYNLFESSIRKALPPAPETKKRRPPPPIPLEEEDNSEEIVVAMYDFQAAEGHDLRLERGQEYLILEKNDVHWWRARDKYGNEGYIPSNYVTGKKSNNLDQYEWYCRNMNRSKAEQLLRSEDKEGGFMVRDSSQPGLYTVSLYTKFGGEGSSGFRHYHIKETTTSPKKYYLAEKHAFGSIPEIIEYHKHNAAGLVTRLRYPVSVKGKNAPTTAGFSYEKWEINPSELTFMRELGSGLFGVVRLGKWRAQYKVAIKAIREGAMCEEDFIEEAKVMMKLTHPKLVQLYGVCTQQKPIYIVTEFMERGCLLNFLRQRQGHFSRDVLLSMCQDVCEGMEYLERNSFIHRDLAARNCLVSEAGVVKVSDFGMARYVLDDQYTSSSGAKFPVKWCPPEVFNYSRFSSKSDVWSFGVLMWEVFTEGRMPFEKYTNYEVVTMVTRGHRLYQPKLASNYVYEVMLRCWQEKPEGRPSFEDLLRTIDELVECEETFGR
As to the kind of experiment: Inhibition of a panel of kinases (in vitro HotSpot kinase assay, 33P-ATP, 1 μM ATP). The class given is biochemical. To be noted: HotSpot kinase assay, 1 μM ATP. As for the experimental part: Example 63: Inhibition of a Panel of Kinases The degree of inhibition of a panel of kinases is determined using the in vitro HotSpot kinase assay (purified enzymes, ^33P-ATP, an appropriate substrate and 1 μM ATP).
Consider `C=CC(=O)N1CC[C@@H](Nc2n[nH]c3nccc(-c4ccnc(NC(=O)c5noc(C(C)(C)C)n5)c4C)c23)C1` [Example 288, 5-tert-butyl-N-[3-methyl-4-(3-{[(3R)-1-(prop-2-enoyl)pyrrolidin-3-yl]amino}-1H-pyrazolo[3,4-b]pyridin-4-yl)pyridin-2-yl]-1,2,4-oxadiazole-3-carboxamide], for which it took 9680 nM to reach half-maximal inhibition (IC50).

The same experiment, now with this note: ratio of TEC IC50 to Btk IC50 (selectivity).
Regarding `CC(C)(C)c1ccc(C(=O)Nc2cccc(-c3ccnc4[nH]nc(N[C@H]5CC[C@H](O)CC5)c34)c2)cc1` [Compound 13, 4-tert-butyl-N-[3-(3-{[(1r,4r)-4-hydroxycyclohexyl]amino}-1H-pyrazolo[3,4-b]pyridin-4-yl)phenyl]benzamide], the TEC/Btk worked out at 10. Still for that read-out and setting: the same measure for `Cc1c(NC(=O)c2ccc(C(C)(C)C)cc2)cccc1-c1ccnc2[nH]nc(N[C@H]3CC[C@H](O)CC3)c12` [Compound 14, 4-(tert-butyl)-N-(3-(3-(((1r,4r)-4-hydroxycyclohexyl)amino)-1H-pyrazolo[3,4-b]pyridin-4-yl)-2-methylphenyl)benzamide]: 10; for `CC(C)(C)c1ccc(C(=O)Nc2ccc(-c3ccnc4[nH]nc(N[C@H]5CC[C@H](O)CC5)c34)cc2F)cc1` [Compound 15, 4-tert-butyl-N-[2-fluoro-4-(3-{[(1r,4r)-4-hydroxycyclohexyl]amino}-1H-pyrazolo[3,4-b]pyridin-4-yl)phenyl]benzamide]: 10.
